“And” between values parts separate entries of the source, which are not always exact repeats. Identical values can stand only once.
Legend:
[1] = Description: Necropsy took place approximately one hour after the second injection. Blood and brain samples were collected for both the mother and fetuses.
[2] = Solubility/encapsulation in cyclodextrin solutions (excess 2-IB, three days, filtered, RP-HPLC)
Procedure: An excess of 2-IB was added to the cyclodextrin solutions, mixed at room temperature for three days and then filtered to remove non-encapsulated) non-solubilised 2-IB.

[3] = Solubility of 2-IB (5 mg/ml) using different acids; assay type: physicochemical
[4] = Formulation preparation: dissolution and titration to higher pH; assay type: physicochemical; conditions: 1.5 mg/g of 2-IB at pH 7.0, overnight stirring
Description: This might be due to the different approaches for the solubility testing and the formulation preparation. […] The six formulations were all transparent and colorless solutions.
It is not feasible to increase the solubility by preparing a formulation at a low pH first and then titrate to a high pH.

[5] = Solubility of 2-IB in 10% SBE-CD at different pH adjusted with 0.1 M citric acid (HPLC); assay type: physicochemical
Procedure: The experimental steps are shown as below.
1. Weigh 0.5 g of SBE-CD into 10 ml glass vial
2. Add 3 ml WFI into each vial to dissolve SBE-CD
4. Magnetic stirring for 1 h
5. Adjust pH to target pH with 0.1 M citric acid
6. Determine the weight of 0.1 M citric acid added
7. Add WFI to total weight of 5 g
8. Measure pH again after 1 hour stirring
9. Filtrate through the formulation through PVDF 0.22 um filter

[6] = Solubility of 2-IB in water at different pH; assay type: physicochemical
[7] = Solubility of 2-IB in 10% SBE-CD at different pH adjusted with 0.1 M citric acid (HPLC); assay type: physicochemical; remark: listed apart in the source
[8] = Solubility in citrate buffers (excess 2-IB, filtered, RP-HPLC); assay type: physicochemical
Procedure: An excess of 2-IB was added to citrate buffers, mixed at room temperature and then filtered to remove nonsolubilised 2-IB.

[9] = Visual inspection after 12 hours storage at 5° C.; assay type: physicochemical
[10] = test system: piglets; conditions: versus allopurinol or deferoxamine; cited from earlier work

## N=C1N[C@H]2[C@H](CS[C@H]2CCCCC(=O)O)N1 [Formulation 2-IB, 2-iminobiotin]
[1]; pooled male fetuses per maternal rat, maternal dose 55 mg/kg sc, 55 mg/kg
  2-IB plasma concentration, pooled fetuses (males): 1,868 (n = 8) ng/mL and 2,080 (n = 4) ng/mL and 1,598 (n = 5) ng/mL and 1,512 (n = 8) ng/mL
[1]; two sc injections, total dose level 55 mg/kg
  transfer over the placenta and the blood-brain barrier: confirmed
[2]; 0% cyclodextrin, Citrate pH 4.0, final pH 4.0
  concentration of 2-IB: 1700 µg/mL
[2]; 0% cyclodextrin, Citrate pH 5.0, final pH 5.0
  concentration of 2-IB: 600 µg/mL
[2]; 0% cyclodextrin, WFI, final pH 6.5
  concentration of 2-IB: 400 µg/mL
[2]; 2.5% HP-CD, Citrate pH 4.0, final pH 4.2
  concentration of 2-IB: 2500 µg/mL
[2]; 2.5% HP-CD, Citrate pH 5.0, final pH 5.1
  concentration of 2-IB: 900 µg/mL
[2]; 2.5% HP-CD, WFI, final pH 6.5
  concentration of 2-IB: 500 µg/mL
[2]; 2.5% SBE-CD, Citrate pH 4.0, final pH 4.3
  concentration of 2-IB: 3700 µg/mL
[2]; 2.5% SBE-CD, Citrate pH 5.0, final pH 5.0
  concentration of 2-IB: 1900 µg/mL
[2]; 2.5% SBE-CD, WFI, final pH 6.3
  concentration of 2-IB: 700 µg/mL
[2]; 5% HP-CD, Citrate pH 4.0, final pH 4.3
  concentration of 2-IB: 3000 µg/mL
[2]; 5% HP-CD, Citrate pH 5.0, final pH 5.1
  concentration of 2-IB: 1200 µg/mL
[2]; 5% HP-CD, WFI, final pH 6.5
  concentration of 2-IB: 500 µg/mL
[2]; 5% SBE-CD, Citrate pH 4.0, final pH 4.4
  concentration of 2-IB: 5500 µg/mL
[2]; 5% SBE-CD, Citrate pH 5.0, final pH 5.1
  concentration of 2-IB: 2900 µg/mL
[2]; 5% SBE-CD, WFI, final pH 6.5
  concentration of 2-IB: 1000 µg/mL
[2]; 10% HP-CD, Citrate pH 4.0, final pH 4.5
  concentration of 2-IB: 4100 µg/mL
[2]; 10% HP-CD, Citrate pH 5.0, final pH 5.2
  concentration of 2-IB: 1600 µg/mL
[2]; 10% HP-CD, WFI, final pH 6.5
  concentration of 2-IB: 600 µg/mL
[2]; 10% SBE-CD, Citrate pH 4.0, final pH 4.6
  concentration of 2-IB: 8000 µg/mL
[2]; 10% SBE-CD, Citrate pH 5.0, final pH 5.1
  concentration of 2-IB: 4600 µg/mL
[2]; 10% SBE-CD, WFI, final pH 6.5
  concentration of 2-IB: 1500 µg/mL
[2]; 20% HP-CD, Citrate pH 4.0, final pH 4.7
  concentration of 2-IB: 5100 µg/mL
[2]; 20% HP-CD, Citrate pH 5.0, final pH 5.3
  concentration of 2-IB: 2100 µg/mL
[2]; 20% HP-CD, WFI, final pH 6.6
  concentration of 2-IB: 900 µg/mL
[2]; 20% SBE-CD, Citrate pH 4.0, final pH 4.9
  concentration of 2-IB: 11400 µg/mL
[2]; 20% SBE-CD, Citrate pH 5.0, final pH 5.3
  concentration of 2-IB: 7000 µg/mL
[2]; 20% SBE-CD, WFI, final pH 6.7
  concentration of 2-IB: 2400 µg/mL
[2]; 40% HP-CD, Citrate pH 4.0, final pH 5.0
  concentration of 2-IB: 5600 µg/mL
[2]; 40% HP-CD, Citrate pH 5.0, final pH 5.6
  concentration of 2-IB: 2600 µg/mL
[2]; 40% HP-CD, WFI, final pH 6.7
  concentration of 2-IB: 1200 µg/mL
[3]; HCl
  pH at which solubility was achieved: 3.0
[3]; weak acids (acetic acid and citric acid)
  pH at which solubility was achieved: 3.3
[4]
  dissolution on formulation preparation: did not dissolve completely after overnight stirring
[5]; pH 4.0
  Solubility of 2-IB: 13.08 mg/g
[5]; pH 4.5
  Solubility of 2-IB: 9.00 mg/g
[5]; pH 5.0
  Solubility of 2-IB: 5.2 mg/g and 5.21 mg/g
[5]; pH 5.1
  Solubility of 2-IB: 5.30 mg/g
[5]; pH 5.5
  Solubility of 2-IB: 3.29 mg/g
[5]; pH 6.2
  Solubility of 2-IB: 1.94 mg/g
[5]; pH 7.0
  Solubility of 2-IB: 1.71 mg/g
[6]; pH 3.5
  solubility in water: around 4.5 mg/ml
[6]; pH 5
  solubility in water: around 0.59 mg/ml
[6]; pH 7.4
  solubility in water: around 0.34 mg/ml
[7]; pH 4.0, without SBE-CD
  solubility with pH-adjustment alone: 1.72 mg/g
[7]; pH 5.0, without SBE-CD
  solubility with pH-adjustment alone: 0.59 mg/g
[8]; 50 mM Citrate pH 3.0, final pH 3.07, room temperature
  Conc. 2IB: 11000 µg/mL and 11270 µg/mL
[8]; 50 mM Citrate pH 3.5, final pH 3.52
  Conc. 2IB: 4450 µg/mL
[8]; 50 mM Citrate pH 4.0, final pH 4.03
  Conc. 2IB: 1720 µg/mL
[8]; 50 mM Citrate pH 4.5, final pH 4.54
  Conc. 2IB: 860 µg/mL
[8]; 50 mM Citrate pH 5.0, final pH 5.02
  Conc. 2IB: 590 µg/mL
[9]; saturated in 50 mM Citrate pH 3.0
  Appearance after 12 hours at 5° C.: Precipitated
[9]; saturated in 50 mM Citrate pH 3.5
  Appearance after 12 hours at 5° C.: Precipitated
[9]; saturated in 50 mM Citrate pH 4.0
  Appearance after 12 hours at 5° C.: Precipitated
[9]; saturated in 50 mM Citrate pH 4.5
  Appearance after 12 hours at 5° C.: Precipitated
[9]; saturated in 50 mM Citrate pH 5.0
  Appearance after 12 hours at 5° C.: Precipitated
[10]
  effectiveness in preventing and/or treating effects of perinatal asphyxia: more effective
